Molecular target: T1, human MC5R (hMC5R) (Homo sapiens, UniProt P33032)
T1 construct: purchased Perkin Elmer RBXMC5M400UA
Experiment: Human MC5R radioligand binding assay (membranes, [125I] NDP-MSH displacement)
Conditions: hMC5R binding; tested as trifluoroacetate or hydrochloride salts, or free bases; read-out: MC5R radioligand IC50
Procedure: Assessments of compound binding to human MC5R (hMC5R) ) by displacement of an ^125I-labeled NDP-MSH receptor ligand peptide were performed essentially as described in the data sheets produced by Perkin Elmer to accompany their frozen hMC5R membranes (Perkin Elmer catalog number RBXMC5M400UA).
[^125I] NDP-MSH: radiolabeled in house and purified by HPLC:
• Na^125I (0.5 mCi, 17.4 Ci/mg) was added to 50 μL sodium phosphate (50 mM, pH7.4) in an eppendorf tube precoated with IODOGEN. After incubation for 10 mins the phosphate buffer containing the iodine was added to NDP-MSH (10 ul at 1 mg/mL) in a separate eppendorf tube. This was incubated for a further 10 mins. The iodinated NDP-MSH was purified by HPLC on a Zorbax SB 300 column using solvent A: 0.05% TFA and solvent B: 90% acetonitrile 0.045% TFA with a linear gradient, 0-67% B over 60 mins. […] Resuspended membranes were kept on ice until they were added to the wells of the plate. Binding Protocol for 400 microassays per vial: • Assays were performed in 96 well polypropylene plates. […] This was incubated for 1 hr at 37° C.

T1 sequence (P33032 whole entry): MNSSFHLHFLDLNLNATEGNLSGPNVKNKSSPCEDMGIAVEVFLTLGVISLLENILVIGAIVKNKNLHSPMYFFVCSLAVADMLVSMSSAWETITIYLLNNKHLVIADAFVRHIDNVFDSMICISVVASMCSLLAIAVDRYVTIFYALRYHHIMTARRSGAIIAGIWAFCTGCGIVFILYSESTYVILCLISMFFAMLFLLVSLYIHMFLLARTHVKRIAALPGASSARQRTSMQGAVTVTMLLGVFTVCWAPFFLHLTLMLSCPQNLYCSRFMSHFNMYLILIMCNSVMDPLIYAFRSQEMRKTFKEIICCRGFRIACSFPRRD

SMILES	IC50
CC[C@H](CN1CC[C@@H](CNC(=O)c2ccc3cc(Cl)ccc3c2)N[C@@H](CCNS(=O)(=O)C(C)C)C1=O)c1ccccc1 [Compound 523, 6-chloro-N-(((3S,5S)-3-(2-(1-methylethylsulfonamido)ethyl)-2-oxo-1-((S)-2-phenylbutyl)-1,4-diazepan-5-yl)methyl)-2-naphthamide]	< 0.1 µM
CCCOC(CN1CC[C@@H](CNC(=O)c2ccc3ccccc3c2)N[C@@H](CCCNC(=N)N)C1=O)c1ccccc1 (stereo partly drawn) [Compound 290, N-(((3S,5S)-3-(3-guanidinopropyl)-2-oxo-1-(2-phenyl-2-propoxyethyl)-1,4-diazepan-5-yl)methyl)-2-naphthamide]	< 1 µM
CC[C@H](CN1CC[C@@H](CNC(=O)c2ccc(Cl)c(Cl)c2)N[C@@H](CCN2CCOCC2)C1=O)c1ccccc1 [Compound 427, 3,4-dichloro-N-(((3S,5S)-3-(2-morpholinoethyl)-2-oxo-1-((S)-2-phenylbutyl)-1,4-diazepan-5-yl)methyl)benzamide]	< 0.1 µM
CCC(CN1CC[C@@H](CNC(=O)/C=C/c2ccc(Cl)cc2)N[C@@H](CCN)C1=O)c1ccccc1 (stereo partly drawn) [Compound 353, (E)-N-(((3S,5S)-3-(2-aminoethyl)-2-oxo-1-(2-phenylbutyl)-1,4-diazepan-5-yl)methyl)-3-(4-chlorophenyl)acrylamide]	< 0.1 µM
N=C(N)NCCC[C@@H]1N[C@H](CNC(=O)c2ccc3ccccc3c2)CCN(CC(Oc2ccccc2)c2ccccc2)C1=O (stereo partly drawn) [Compound 295, N-(((3S,5S)-3-(3-guanidinopropyl)-2-oxo-1-(2-phenoxy-2-phenylethyl)-1,4-diazepan-5-yl)methyl)-2-naphthamide]	< 0.1 µM
CCC(CC)CN1CC[C@@H](CNC(=O)c2ccc3cc(F)ccc3c2)N[C@@H](CCN2CCCCC2)C1=O [Compound 372, N-(((3S,5S)-1-(2-ethylbutyl)-2-oxo-3-(2-(piperidin-1-yl)ethyl)-1,4-diazepan-5-yl)methyl)-6-fluoro-2-naphthamide]	< 0.1 µM
CN(C)C(=O)C(CN1CC[C@@H](CNC(=O)c2ccc3ccccc3c2)N[C@@H](CCCNC(=N)N)C1=O)c1ccccc1 (stereo partly drawn) [Compound 307, N-(((3S,5S)-1-(3-(dimethylamino)-3-oxo-2-phenylpropyl)-3-(3-guanidinopropyl)-2-oxo-1,4-diazepan-5-yl)methyl)-2-naphthamide]	< 10 µM
CC[C@H](CN1CCC(CNC(=O)c2ccc3cc(Cl)ccc3c2)NC(C2CCN(CC)CC2)C1=O)c1ccccc1 (stereo partly drawn) [Compound 455, 6-chloro-N-((3-(1-ethylpiperidin-4-yl)-2-oxo-1-((S)-2-phenylbutyl)-1,4-diazepan-5-yl)methyl)-2-naphthamide]	< 0.1 µM
O=C(/C=C/c1ccc(Cl)cc1)NC[C@@H]1CCN(CC(c2ccccc2)c2ccccc2)C(=O)[C@H](CCN2CCCC2)N1 [Compound 380, (E)-3-(4-chlorophenyl)-N-(((3S,5S)-1-(2,2-diphenylethyl)-2-oxo-3-(2-(pyrrolidin-1-yl)ethyl)-1,4-diazepan-5-yl)methyl)acrylamide]	< 0.1 µM
O=C(/C=C/c1ccc(OC(F)(F)F)cc1)NC[C@@H]1CCN(Cc2cc(Cl)cc(Cl)c2)C(=O)[C@H](CCN2CCCCC2)N1 [Compound 532, (E)-N-(((3S,5S)-1-(3,5-dichlorobenzyl)-2-oxo-3-(2-(piperidin-1-yl)ethyl)-1,4-diazepan-5-yl)methyl)-3-(4-(trifluoromethoxy)phenyl)acrylamide]	< 0.01 µM
CC[C@H](CN1CC[C@@H](CNC(=O)c2ccc(Cl)c(Cl)c2)N[C@@H](CCN2CCCC[C@@H]2C)C1=O)c1ccccc1 [Compound 453, 3,4-dichloro-N-(((3S,5S)-3-(2-((S)-2-methylpiperidin-1-yl)ethyl)-2-oxo-1-((S)-2-phenylbutyl)-1,4-diazepan-5-yl)methyl)benzamide]	< 0.01 µM
Cc1ccc(/C=C/C(=O)NC[C@@H]2CCN(CC(c3ccccc3)c3ccccc3)C(=O)[C@H](CCN)N2)c(C)c1 [Compound 399, (E)-N-(((3S,5S)-3-(2-aminoethyl)-1-(2,2-diphenylethyl)-2-oxo-1,4-diazepan-5-yl)methyl)-3-(2,4-dimethylphenyl)acrylamide]	< 1 µM
Cc1ccc(/C=C/C(=O)NC[C@@H]2CCN(CC(c3ccccc3)c3ccccc3)C(=O)[C@H](CCN3CCCCC3)N2)cc1 [Compound 285, (E)-N-(((3S,5S)-1-(2,2-diphenylethyl)-2-oxo-3-(2-(piperidin-1-yl)ethyl)-1,4-diazepan-5-yl)methyl)-3-p-tolylacrylamide]	< 0.1 µM
CC(=O)N[C@@H](Cc1cnc[nH]1)C(=O)N[C@@H](Cc1ccc2ccccc2c1)[C@@H]1CCN(CC(c2ccccc2)c2ccccc2)C(=O)[C@H](CCCNC(=N)N)N1 [Compound 81, (S)-2-acetamido-N-((S)-1-((3S,5S)-1-(2,2-diphenylethyl)-3-(3-guanidinopropyl)-2-oxo-1,4-diazepan-5-yl)-2-(naphthalen-2-yl)ethyl)-3-(1H-imidazol-5-yl)propanamide]	< 1 µM
CCC(CN1CC[C@@H](CNC(=O)c2ccc3cc(Cl)ccc3c2)N[C@@H](CCN2CCCCC2)C1=O)C1CC1 (stereo partly drawn) [Compound 488, 6-chloro-N-(((3S,5S)-1-(2-cyclopropylbutyl)-2-oxo-3-(2-(piperidin-1-yl)ethyl)-1,4-diazepan-5-yl)methyl)-2-naphthamide]	< 0.1 µM
CCC(C)(CC)CN1CC[C@@H](CNC(=O)c2ccc(Cl)c(Cl)c2)N[C@@H](CCN)C1=O [Compound 520, N-(((3S,5S)-3-(2-aminoethyl)-1-(2-ethyl-2-methylbutyl)-2-oxo-1,4-diazepan-5-yl)methyl)-3,4-dichlorobenzamide]	< 10 µM
CC[C@H](CN1CC[C@@H](CNC(=O)c2ccc(Cl)c(Cl)c2)N[C@@H](CN2CCCCC2)C1=O)c1ccccc1 [Compound 416, 3,4-dichloro-N-(((3S,5S)-2-oxo-1-((S)-2-phenylbutyl)-3-(piperidin-1-ylmethyl)-1,4-diazepan-5-yl)methyl)benzamide]	< 1 µM
CC(C)(NC(=O)/C=C/c1ccc(Cl)cc1)[C@@H]1CCN(CC(c2ccccc2)c2ccccc2)C(=O)[C@H](CCN)N1 [Compound 419, (E)-N-(2-((3S,5S)-3-(2-aminoethyl)-1-(2,2-diphenylethyl)-2-oxo-1,4-diazepan-5-yl)propan-2-yl)-3-(4-chlorophenyl)acrylamide]	< 1 µM
CC[C@@H](CN1CC[C@@H](CNC(=O)c2ccc3cc(Cl)ccc3c2)N[C@@H](CCN2CCCCC2)C1=O)c1ccccc1 [Compound 526, 6-chloro-N-(((3S,5S)-2-oxo-1-((R)-2-phenylbutyl)-3-(2-(piperidin-1-yl)ethyl)-1,4-diazepan-5-yl)methyl)-2-naphthamide]	< 0.01 µM
CC[C@@H](CN1CC[C@@H](CNC(=O)c2ccc(Cl)c(Cl)c2)N[C@@H](CCN2CCCCC2)C1=O)c1ccccc1 [Compound 363, 3,4-dichloro-N-(((3S,5S)-2-oxo-1-((R)-2-phenylbutyl)-3-(2-(piperidin-1-yl)ethyl)-1,4-diazepan-5-yl)methyl)benzamide]	< 0.1 µM
CC(C)[C@H](CN1CC[C@@H](CNC(=O)c2ccc3ccccc3c2)N[C@@H](CCN2CCCCC2)C1=O)c1ccccc1 [Compound 395, N-(((3S,5S)-1-((S)-3-methyl-2-phenylbutyl)-2-oxo-3-(2-(piperidin-1-yl)ethyl)-1,4-diazepan-5-yl)methyl)-2-naphthamide]	< 0.1 µM

— patent publication US8008291B2 (Mimetica Pty Ltd, priority 2008, dated 2011)
